Experimental data taken from patent publication US20090202571A1, “Bioreductively-activated prodrugs” (HOPNIC LABORATORY CO., LTD., priority 2004, published 2009).

Legend:
human P450 reductase = target: T1, human P450 reductase (Homo sapiens, UniProt P16435); experiment: Drug release by human cytochrome P450 reductase; assay type: biochemical; conditions: NADPH, pH 7.4, 37° C.
T1 construct: purchased Gentest or Cypex P244 (Gentest) or Cyp004 (Cypex)
T1 sequence (P16435 1-677): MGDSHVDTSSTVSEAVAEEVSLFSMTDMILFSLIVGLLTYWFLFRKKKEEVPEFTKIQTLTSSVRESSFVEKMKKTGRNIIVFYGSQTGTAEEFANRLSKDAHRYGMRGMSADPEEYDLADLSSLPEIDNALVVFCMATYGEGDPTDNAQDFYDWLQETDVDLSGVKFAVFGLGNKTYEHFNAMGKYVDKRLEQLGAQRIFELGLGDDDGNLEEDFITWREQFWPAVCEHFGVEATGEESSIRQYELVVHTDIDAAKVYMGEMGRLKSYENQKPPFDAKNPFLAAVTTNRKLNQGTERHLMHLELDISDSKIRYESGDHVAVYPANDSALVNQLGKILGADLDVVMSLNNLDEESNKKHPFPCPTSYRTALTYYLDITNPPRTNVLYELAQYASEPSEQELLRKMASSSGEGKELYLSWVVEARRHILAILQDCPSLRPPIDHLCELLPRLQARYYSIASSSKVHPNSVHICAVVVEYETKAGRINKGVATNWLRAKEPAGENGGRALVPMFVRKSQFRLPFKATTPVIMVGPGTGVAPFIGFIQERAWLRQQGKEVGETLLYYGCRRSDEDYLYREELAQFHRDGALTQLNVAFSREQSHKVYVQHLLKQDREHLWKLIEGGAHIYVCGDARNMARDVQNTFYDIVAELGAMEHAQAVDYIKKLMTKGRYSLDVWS
Description: Cytochrome p450 reductase is widely expressed in human tumours as well as in a range of normal tissues and is one of a number of enzymes that can catalyse bioreduction. […] For experiments under nitrogen the mixture was degassed with nitrogen for 20 minutes prior to compound addition and overgassed with nitrogen during the incubation.

A549 cells = experiment: Cellular cytotoxicity (Celltiter 96 Aqueous One Solution, MTS); assay type: cell-based; conditions: 61 h incubation period as printed, MTS absorbance 490 nm
Excerpt: The cytotoxic or cytostatic properties of compounds of formula (1) and corresponding etoposide compounds can be assessed for example, by use, for example, of this assay. The Celltiter 96® Aqueous One Solution Cell Proliferation Assay kit (Promega Corporation, USA) which is a colorimetric method for determining the number of viable cells in proliferation or cytotoxicity assays was used. In this assay the MTS tetrazolium compound (Owen's Reagent) is bioreduced by viable cells into a coloured formazan product which is soluble in tissue culture medium and can be measured by recording absorbance at 490 nm with a 96 well plate reader. A549 cells were seeded in Eagles Minimum Essential Medium supplemented with 10% foetal calf serum and non-essential amino acids at 10^3 cell per well on a 96 well plate and allowed to attach for 24 h. Compounds were dissolved in DMSO and diluted with cell culture medium before addition. […] The MTS reagent was added to each well, left for 4 h, then the absorbance measured at 490 nm with a 96 well plate reader.

[1] = Metabolism in tumour homogenates; assay type: in vitro ADME; conditions: 5 μmol dm^−3 prodrug, NADPH, pH 7.4, 37° C.
Description: Useful bioreductive prodrugs can be shown to release the active drug selectively under conditions of low oxygen in the presence of tumour homogenate in this assay. Freshly-excised CaNT tumours (approximately 0.5 to 1 g) were homogenised in 15 ml of ice-cold 50 mmol din^−3 potassium phosphate buffer at pH 7.4.

[2] = 5 μmol dm^−3 prodrug, NADPH, pH 7.4, 37° C.
Description: Freshly-excised mouse liver (approximately 1 g) was homogenised in 15 ml of ice-cold 50 mmol dm^−3 potassium phosphate buffer at pH 7.4. The homogenates were centrifuged at 1000 RPM for 10 min and the supernatants stored on ice. The metabolism of 5 µmol dm^−3 prodrug in air was performed with 0.5 ml liver homogenate (˜2 mg of protein by Bradford assay) with 100 µmol dm^−3 NADPH in 50 mmol dm^−3 potassium phosphate buffer at pH 7.4 incubated at 37° C. Samples (60 µl) were taken at regular intervals and added to an equivalent volume of acetonitrile, then mixed and centrifuged at 14, 300 RPM for 2 min prior to product analysis by HPLC.

9-[(4,6-O-Ethylidene-β-D-glucopyranosyl)oxy]-5,8,8a,9-tetrahydro-5-(4-(1-(5-nitrothien-2-yl)ethoxy)-3,5-dimethoxyphenyl)furo[3′,4′:6,7]naphtha[2,3-d]-1,3-dioxol-6(5aH)-one [Example 1]
drug production (human P450 reductase; under air): no drug production could be detected
rate of etoposide production (human P450 reductase; under anoxia (nitrogen)): 0.83 nmol min^−1 mg protein^−1
IC50 (A549 cells): > 20 µM
etoposide production ([1]; under air): no etoposide production was detected
rate of etoposide production ([1]; under nitrogen): 17 μmol/min/mg protein

9-[(4,6-O-Ethylidene-β-D-glucopyranosyl)oxy]-5,8,8a,9-tetrahydro-5-(4-(5-nitrothien-2-yl)methoxy)-3,5-dimethoxyphenyl)furo[3′,4′:6,7]naphtha[2,3-d]-1,3-dioxol-6(5aH)-one [Example 2]
Rate of drug release (pmol/min/mg protein) Anoxic ([2]; Anoxic (nitrogen)): 388 pmol/min/mg protein
Rate of drug release (pmol/min/mg protein) Oxic ([2]; Oxic (air)): 7 pmol/min/mg protein

COc1cc([C@@H]2c3cc4c(cc3[C@@H](O[C@@H]3O[C@@H]5CO[C@@H](C)O[C@H]5[C@H](O)[C@H]3O)[C@H]3COC(=O)[C@H]23)OCO4)cc(OC)c1O [etoposide, reference compound]
IC50 (A549 cells; Homo sapiens): 7.5 µM
